# From patent US9708314B2, “Heterocyclic amide compound” (NISSAN CHEMICAL INDUSTRIES, LTD., priority 2013, dated 2017)
# Tests used:
# Format in all cases: in vivo
# [1] = tested on: directly sowed Oryza sativa; assay: Test Example 4: effect on crop by application to foliage (diluvial soil, plastic box); conditions: for b: effect on crop, directly sowed Oryza sativa / effect on crop, d (directly sowed Oryza sativa): application to foliage; for b: effect on crop, directly sowed Oryza sativa: application herbicide amount 320 g/ha; for d (directly sowed Oryza sativa) effect on crop grade: foliage application
# Summary of the method: (§1)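 Plants were grown in sterilized diluvial soil in a greenhouse at 25-30° C for 14 days, then sprayed on stems and leaves with water-diluted emulsion formulation at set rates in g/ha. Weed control and crop injury were scored 3 weeks after treatment on a 0-5 herbicidal-ratio scale, from 0 (≤5%) to 5 (≥90%).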
# Glycine max = assay: as above; conditions: for d: effect on crop, Glycine max / effect on crop, c (Glycine max): application to foliage; for d: effect on crop, Glycine max: application herbicide amount 320 g/ha; for c (Glycine max) effect on crop grade: foliage application
# Summary of the method: as §1
# Brassica campestris L. = assay: as above; conditions: for g: effect on crop, Brassica campestris L. / effect on crop, g (Brassica campestris L.): application to foliage; for g: effect on crop, Brassica campestris L.: application herbicide amount 320 g/ha; for g (Brassica campestris L.) effect on crop grade: foliage application
# Summary of the method: as §1
# Zea mays = assay: as above; conditions: for c: effect on crop, Zea mays: application herbicide amount 320 g/ha; for b (Zea mays) effect on crop grade: foliage application, 320 g/ha
# Summary of the method: as §1
# Triticum aestivum = assay: as above; conditions: for e: effect on crop, Triticum aestivum / effect on crop, e (Triticum aestivum): application to foliage; for e: effect on crop, Triticum aestivum: application herbicide amount 320 g/ha; for e (Triticum aestivum) effect on crop grade: foliage application
# Summary of the method: as §1
# [2] = tested on: Beta vulgaris ssp. vulgaris; assay: as above; conditions: for f: effect on crop, Beta vulgaris ssp. vulgaris / effect on crop, f (Beta vulgaris ssp. vulgaris): application to foliage; for f: effect on crop, Beta vulgaris ssp. vulgaris: application herbicide amount 320 g/ha; for f (Beta vulgaris ssp. vulgaris) effect on crop grade: foliage application
# Summary of the method: as §1
# Monochoria vaginalis = assay: Test Example 1: herbicidal activity, application before weed generation in submerged conditions; conditions: Application herbicide amount 320 g/ha; Seventeenth Table
# Summary of the method: (§2)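 Pre-emergence application to water surface of submerged pots (4 cm depth, alluvial soil) on sowing day, with 2.5-leaf rice transplanted; emulsion diluted to g/ha rates. Grown in greenhouse at 25–30 °C; 0–5 herbicidal/crop-effect score after three weeks.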
# Scirpus juncoides = assay: as above; conditions: Seventeenth Table; for B: Scirpus juncoides (herbicidal effect grade): Application herbicide amount 320 g/ha
# Summary of the method: as §2
# [3] = tested on: Echinochloa oryzacola Vasing.; assay: as above; conditions: Seventeenth Table; for A: Echinochloa oryzicola Vasing. (herbicidal effect grade): Application herbicide amount 320 g/ha
# Summary of the method: as §2
# [4] = application herbicide amount 260 g/ha
Structure (SMILES),"b: effect on crop, directly sowed Oryza sativa [1]","d: effect on crop, Glycine max (Glycine max)","g: effect on crop, Brassica campestris L. (Brassica campestris L.)","c: effect on crop, Zea mays (Zea mays; application to foliage)","e: effect on crop, Triticum aestivum (Triticum aestivum)","f: effect on crop, Beta vulgaris ssp. vulgaris [2]",C: Monochoria vaginalis (herbicidal effect grade) (Monochoria vaginalis),B: Scirpus juncoides (herbicidal effect grade) (Scirpus juncoides),A: Echinochloa oryzicola Vasing. (herbicidal effect grade) [3],also measured
Cc1nnc(NC(=O)c2ccc(C(F)(F)F)n3c(SC4CCCC4)nnc23)o1 [1-154],0 (Herbicidal ratio of 5% or less (almost no effect)),2 (Herbicidal ratio of 20% or more and less than 40%),0 (Herbicidal ratio of 5% or less (almost no effect)),0 (Herbicidal ratio of 5% or less (almost no effect)),0 (Herbicidal ratio of 5% or less (almost no effect)),4 (Herbicidal ratio of 70% or more and less than 90%),2 (Herbicidal ratio of 20% or more and less than 40%),3 (Herbicidal ratio of 40% or more and less than 70%),,
O=C(Nc1nnco1)c1ccc(C(F)(F)F)n2c(SC3CCCC3)nnc12 [1-155],0 (Herbicidal ratio of 5% or less (almost no effect)),3 (Herbicidal ratio of 40% or more and less than 70%),0 (Herbicidal ratio of 5% or less (almost no effect)),0 (Herbicidal ratio of 5% or less (almost no effect)),0 (Herbicidal ratio of 5% or less (almost no effect)),5 (Herbicidal ratio of 90% or more (almost completely withered)),3 (Herbicidal ratio of 40% or more and less than 70%),4 (Herbicidal ratio of 70% or more and less than 90%),,
Cc1nnc(NC(=O)c2ccc(C(F)(F)F)n3c(SCc4ccc(Cl)nc4)nnc23)o1 [1-156],0 (Herbicidal ratio of 5% or less (almost no effect)),3 (Herbicidal ratio of 40% or more and less than 70%),0 (Herbicidal ratio of 5% or less (almost no effect)),0 (Herbicidal ratio of 5% or less (almost no effect)),1 (Herbicidal ratio of 5% or more and less than 20%),3 (Herbicidal ratio of 40% or more and less than 70%),0 (Herbicidal ratio of 5% or less (almost no effect)),2 (Herbicidal ratio of 20% or more and less than 40%),,
O=C(Nc1nnco1)c1ccc(C(F)(F)F)n2c(SCc3ccc(Cl)nc3)nnc12 [1-157],0 (Herbicidal ratio of 5% or less (almost no effect)),3 (Herbicidal ratio of 40% or more and less than 70%),2 (Herbicidal ratio of 20% or more and less than 40%),0 (Herbicidal ratio of 5% or less (almost no effect)),1 (Herbicidal ratio of 5% or more and less than 20%),4 (Herbicidal ratio of 70% or more and less than 90%),2 (Herbicidal ratio of 20% or more and less than 40%),3 (Herbicidal ratio of 40% or more and less than 70%),,
COc1cc(OC)cc(-c2nnc3c(C(=O)Nc4nnnn4C)ccc(C(F)(F)F)n23)c1 [2-063],,,,,,,5 (Herbicidal ratio of 90% or more (almost completely withered)),,5 (Herbicidal ratio of 90% or more (almost completely withered)),d (directly sowed Oryza sativa) effect on crop grade ([1]; 320 g/ha): 4 (Herbicidal ratio of 70% or more and less than 90%); c (Glycine max) effect on crop grade (Glycine max; 320 g/ha): 3 (Herbicidal ratio of 40% or more and less than 70%); g (Brassica campestris L.) effect on crop grade (Brassica campestris L.; 320 g/ha): 4 (Herbicidal ratio of 70% or more and less than 90%); b (Zea mays) effect on crop grade (Zea mays): 4 (Herbicidal ratio of 70% or more and less than 90%); e (Triticum aestivum) effect on crop grade (Triticum aestivum; 320 g/ha): 3 (Herbicidal ratio of 40% or more and less than 70%); f (Beta vulgaris ssp. vulgaris) effect on crop grade ([2]; 320 g/ha): 5 (Herbicidal ratio of 90% or more (almost completely withered))
Cn1nnnc1NC(=O)c1ccc(C(F)(F)F)n2c(-c3cc(Cl)cc(Cl)c3)nnc12 [2-064],,,,,,,2 (Herbicidal ratio of 20% or more and less than 40%),,5 (Herbicidal ratio of 90% or more (almost completely withered)),d (directly sowed Oryza sativa) effect on crop grade ([1]; 320 g/ha): 3 (Herbicidal ratio of 40% or more and less than 70%); c (Glycine max) effect on crop grade (Glycine max; 320 g/ha): 0 (Herbicidal ratio of 5% or less (almost no effect)); g (Brassica campestris L.) effect on crop grade (Brassica campestris L.; 320 g/ha): 3 (Herbicidal ratio of 40% or more and less than 70%); b (Zea mays) effect on crop grade (Zea mays): 0 (Herbicidal ratio of 5% or less (almost no effect)); e (Triticum aestivum) effect on crop grade (Triticum aestivum; 320 g/ha): 0 (Herbicidal ratio of 5% or less (almost no effect)); f (Beta vulgaris ssp. vulgaris) effect on crop grade ([2]; 320 g/ha): 4 (Herbicidal ratio of 70% or more and less than 90%)
Cn1nnnc1NC(=O)c1ccc(C(F)(F)F)n2c(NCC(F)(F)F)nnc12 [2-081],,,,,,,4 (Herbicidal ratio of 70% or more and less than 90%),3 (Herbicidal ratio of 40% or more and less than 70%),4 (Herbicidal ratio of 70% or more and less than 90%),"effect on crop, d (directly sowed Oryza sativa) ([1]; 320 g/ha): 3 (Herbicidal ratio of 40% or more and less than 70%); effect on crop, c (Glycine max) (Glycine max; 320 g/ha): 0 (Herbicidal ratio of 5% or less (almost no effect)); effect on crop, g (Brassica campestris L.) (Brassica campestris L.; 320 g/ha): 4 (Herbicidal ratio of 70% or more and less than 90%); effect on crop, e (Triticum aestivum) (Triticum aestivum; 320 g/ha): 2 (Herbicidal ratio of 20% or more and less than 40%); effect on crop, f (Beta vulgaris ssp. vulgaris) ([2]; 320 g/ha): 5 (Herbicidal ratio of 90% or more (almost completely withered))"
CC(C)N(C)c1nnc2c(C(=O)Nc3nnnn3C)ccc(C(F)(F)F)n12 [2-082],,,,,,,5 (Herbicidal ratio of 90% or more (almost completely withered)),5 (Herbicidal ratio of 90% or more (almost completely withered)),5 (Herbicidal ratio of 90% or more (almost completely withered)),"effect on crop, d (directly sowed Oryza sativa) ([1]; 320 g/ha): 5 (Herbicidal ratio of 90% or more (almost completely withered)); effect on crop, c (Glycine max) (Glycine max; 320 g/ha): 1 (Herbicidal ratio of 5% or more and less than 20%); effect on crop, g (Brassica campestris L.) (Brassica campestris L.; 320 g/ha): 5 (Herbicidal ratio of 90% or more (almost completely withered)); effect on crop, e (Triticum aestivum) (Triticum aestivum; 320 g/ha): 4 (Herbicidal ratio of 70% or more and less than 90%); effect on crop, f (Beta vulgaris ssp. vulgaris) ([2]; 320 g/ha): 5 (Herbicidal ratio of 90% or more (almost completely withered))"
Cn1nnnc1NC(=O)c1ccc(C(F)(F)F)n2c(C=O)nnc12 [2-109],,,,,,,,,,"effect on crop, d (directly sowed Oryza sativa) ([1]; 256 g/ha): 4 (Herbicidal ratio of 70% or more and less than 90%); effect on crop, c (Glycine max) (Glycine max; 256 g/ha): 0 (Herbicidal ratio of 5% or less (almost no effect)); effect on crop, g (Brassica campestris L.) (Brassica campestris L.; 256 g/ha): 4 (Herbicidal ratio of 70% or more and less than 90%); effect on crop, b (Zea mays) (Zea mays; application to foliage, 256 g/ha): 1 (Herbicidal ratio of 5% or more and less than 20%); effect on crop, e (Triticum aestivum) (Triticum aestivum; 256 g/ha): 1 (Herbicidal ratio of 5% or more and less than 20%); effect on crop, f (Beta vulgaris ssp. vulgaris) ([2]; 256 g/ha): 5 (Herbicidal ratio of 90% or more (almost completely withered)); B (Scirpus juncoides) herbicidal ratio grade (Scirpus juncoides; [4]): 3 (Herbicidal ratio of 40% or more and less than 70%); A (Echinochloa oryzicola Vasing.) herbicidal ratio grade [3, 4]: 2 (Herbicidal ratio of 20% or more and less than 40%)"
